Source: patent publication US5506256A, “Proline derivatives possessing prolyl endopeptidase-inhibitory activity” (Yoshitomi Pharmaceutical Industries, Ltd., priority 1990, dated 1996)

What was measured:
[1] = biological target: T1, elastase (Sus scrofa, UniProt P00772); assay: Determination of elastase-inhibitory activity; type: biochemical, swine; conditions: read-out: inhibition rate, elastase
T1 construct: purchased Sigma; host or cells: swine pancreas
Protocol: (§1) The methods for the measurement of inhibitory activities against various proteases and the method for calculating the inhibition rate are as follows.
Determination of elastase-inhibitory activity
Similarly, by following the procedure mentioned above, but employing a 1 mM Tris-HCl buffer (pH 8.5) as a buffer for measurement, a 0.2 μM solution of elastase (derived from swine pancreas, Sigma) in the same buffer as an enzyme solution and a 200 μM solution of 7-(N-succinyl-aranyl-prolyl-aranyl)-4-methylcoumarinamide (Peptide Institute, Inc.) in the same buffer as a substrate solution, each fluorescence (e1, e2 and e3) was determined, respectively.
(§2) Using the fluorescence x1, x2 and x3 measured in the abovementioned manner, the inhibitory rate against various proteases was calculated by the following formula where x stands for b, c, d, e or f: [formula]

[2] = test system: leucine aminopeptidase; assay: Determination of leucine aminopeptidase-inhibitory activity; type: biochemical, swine; design: unit not given here
Protocol: as §1
Determination of leucine aminopeptidase-inhibitory activity
Similarly, by following the procedure mentioned above, but employing a 50 mM Tris-HCl buffer (pH 8.0) as a buffer for measurement, a […] solution of leucine aminopeptidase (derived from swine kidney, Sigma) in the same buffer as an enzyme solution and a 200 μM solution of 7-leucyl-4-methyl-coumarinamide (Peptide Institute, Inc.) in the same buffer as a substrate solution, each fluorescence (d1, d2 and d3) was determined, respectively.
as §2

[3] = biological target: T2, chymotrypsin (Bos taurus, UniProt P00766); assay: Determination of chymotrypsin-inhibitory activity; type: biochemical, bovine; conditions: read-out: inhibition rate, chymotrypsin
T2 construct: purchased Sigma; host or cells: bovine pancreas
Protocol: as §1
Determination of chymotrypsin-inhibitory activity
Similarly, by following the procedure mentioned above, but employing a 50 mM Tris-HCl buffer (pH 8.0) as a buffer for measurement, a 0.2 μM solution of chymotrypsin (derived from bovine pancreas, Sigma) in the same buffer as an enzyme solution and a […] solution of 7-(N-succinyl-leucyl-leucyl-valyl-tyrosyl)-4-methylcoumarinamide (Peptide Institute, Inc.) in the same buffer as a substrate solution, each fluorescence (c1, c2 and c3) was determined, respectively.
as §2

[4] = biological target: T3, prolyl endopeptidase (Rattus norvegicus, UniProt O70196); assay: Prolyl endopeptidase-inhibitory activity; type: biochemical; conditions: for inhibition at 0.1 µM / inhibition at 1 µM: read-out: inhibition rate, prolyl endopeptidase; for IC50: prolyl endopeptidase extracted from rat brain, pH 7.0, 30° C., read-out: IC50
T3 construct: prolyl endopeptidase extracted from rat brain; from tissue; host or cells: rat brain
T3 sequence (O70196 whole entry): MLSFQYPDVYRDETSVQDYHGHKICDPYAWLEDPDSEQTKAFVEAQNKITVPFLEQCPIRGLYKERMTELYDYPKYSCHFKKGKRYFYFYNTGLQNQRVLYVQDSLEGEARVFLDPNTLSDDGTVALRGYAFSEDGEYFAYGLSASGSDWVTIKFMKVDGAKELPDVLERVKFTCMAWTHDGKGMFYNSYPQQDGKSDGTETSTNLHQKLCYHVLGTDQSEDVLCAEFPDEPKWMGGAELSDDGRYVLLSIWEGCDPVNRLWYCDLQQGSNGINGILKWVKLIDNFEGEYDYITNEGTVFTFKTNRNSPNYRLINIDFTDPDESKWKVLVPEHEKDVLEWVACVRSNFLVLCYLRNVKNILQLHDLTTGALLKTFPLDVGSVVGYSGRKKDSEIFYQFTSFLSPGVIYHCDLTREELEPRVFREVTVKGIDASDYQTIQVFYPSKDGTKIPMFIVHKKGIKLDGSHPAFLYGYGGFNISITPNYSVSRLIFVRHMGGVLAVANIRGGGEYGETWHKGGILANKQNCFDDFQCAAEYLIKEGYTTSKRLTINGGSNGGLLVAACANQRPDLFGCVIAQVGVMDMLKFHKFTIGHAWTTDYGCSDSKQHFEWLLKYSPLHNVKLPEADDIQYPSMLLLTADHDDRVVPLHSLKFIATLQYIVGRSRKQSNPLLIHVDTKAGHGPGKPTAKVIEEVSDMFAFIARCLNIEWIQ
Protocol: Prolyl endopeptidase-inhibitory activity
A mixture of a 0.1M potassium sodium phosphate buffer (pH 7.0) (2675 μl), a solution of the compounds of the present invention in a 0.1M potassium sodium phosphate buffer (pH 7.0) (100 μl) and a solution of prolyl endopeptidase extracted from rat brain in a 25 mM sodium phosphate buffer (100 μl) [123 unit/1, pH 6.8, containing 1 mM dithiothreitol and 0.5 mM EDTA, prepared by the method described in J. Neurochem., 35, 527 (1980)]was preincubated at 30° C. for 30 minutes. Thereto was added a 0.2 mM solution of 7-(N-succinyl-glycyl-prolyl)-4-methylcoumarinamide (Peptide Institute, INC.) in a 0.1M potassium sodium phosphate buffer (pH 7.0) (125 μl), and the mixture was incubated at 30° C. for 1 hour. The reaction mixture was immersed in ice (0° C.) to terminate the reaction, and the fluorescence (a1) was determined ten minutes later (excitation at 370 nm and emission at 440 nm). Concurrently, there were conducted the experiment wherein, in the above system, the prolyl endopeptidase solution was substituted for a 25 mM sodium phosphate buffer (pH 6.8, containing 1 mM dithiothreitol and 0.5 mM EDTA) and the experiment wherein the solution of the compounds of the present invention was substituted for a 0.1M potassium sodium phosphate buffer (pH 7.0). Each fluorescence (a2 and a3) was determined respectively [See Tanpakushitsu Kakusan Koso, 29, 127 (1984)]. The prolyl endopeptidase-inhibition rate was calculated by the following formula, and IC50, a concentration of a compound producing 50% inhibition, was estimated by semilogarithmic graph paper. [formula] […]

[5] = biological target: T4, cathepsin B (Bos taurus, UniProt P07688); assay: Determination of cathepsin B-inhibitory activity; type: biochemical, bovine; conditions: read-out: inhibition rate, cathepsin B
T4 construct: purchased Sigma; host or cells: bovine spleen
Protocol: as §1
Determination of cathepsin B-inhibitory activity
Similarly, by following the procedure mentioned above, but employing a 100 mM sodium phosphate buffer (pH 6.0; containing 1.33 mM EDTA Na2) as a buffer for measurement, a 0.02 μM solution of cathepsin B (derived from bovine spleen, Sigma) in the same buffer as an enzyme solution and a 200 μM solution of 7-(N-benzyloxycarbonyl-phenylaranyl-arginyl)-4-methylcoumarinamide (Peptide Institute, Inc.) in the same buffer as a substrate solution, each fluorescence (f1, f2 and f3) was determined, respectively.
as §2

[6] = biological target: T5, trypsin (Bos taurus, UniProt P00760); assay: Determination of trypsin-inhibitory activity; type: biochemical, bovine; conditions: read-out: inhibition rate, trypsin
T5 construct: purchased Sigma; host or cells: bovine pancreas
T5 sequence (P00760 24-246): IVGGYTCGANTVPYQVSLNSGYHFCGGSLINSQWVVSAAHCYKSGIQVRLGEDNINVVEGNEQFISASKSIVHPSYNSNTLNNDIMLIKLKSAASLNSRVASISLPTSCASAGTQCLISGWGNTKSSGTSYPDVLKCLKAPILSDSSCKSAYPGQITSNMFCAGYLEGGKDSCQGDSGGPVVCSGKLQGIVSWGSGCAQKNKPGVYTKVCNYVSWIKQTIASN
Protocol: as §1
Determination of trypsin-inhibitory activity
In the present invention, a 50 mM Tris-HCl buffer (pH 8.0) was employed as a buffer for measurement.
To a mixture of the above-mentioned buffer (850 μl), a solution of the compounds of the present invention in the same buffer (50 μl) and a 0.02 μM solution of trypsin (derived from bovine pancreas, Sigma) in the same buffer (50 μl) was added a 200 μM solution of 7-(prolyl-phenylaranyl-arginyl)-4-methylcoumarinamide (Peptide Institute, Inc.) in the same buffer (50 μl),and the mixture was incubated at 30° C. for 1 hour. The reaction mixture was immersed in ice (0° C.) to terminate the reaction, and the fluorescence (b1) was determined 1 hour later (excitation at 370 nm and emission at 440 nm). Concurrently, there were conducted the experiment wherein, in the system above, the trypsin solution was substituted for a buffer alone, and the experiment wherein the solution of the compounds of the present invention was substituted for a buffer above. Each fluorescence (b2 and b3) was determined respectively.
as §2

T1 sequence (P00772 27-266): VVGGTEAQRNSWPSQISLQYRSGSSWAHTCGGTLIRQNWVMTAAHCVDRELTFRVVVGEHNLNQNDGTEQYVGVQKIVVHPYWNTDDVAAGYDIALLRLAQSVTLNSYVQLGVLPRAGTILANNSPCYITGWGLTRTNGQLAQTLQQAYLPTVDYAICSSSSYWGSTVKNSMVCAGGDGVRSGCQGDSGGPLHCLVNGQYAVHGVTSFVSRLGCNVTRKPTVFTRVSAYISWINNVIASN

In the case of `COc1ccc([S@@+]([O-])CC(=O)[C@@H]2CCCN2C(=O)[C@@H]2CCCN2C(=O)OCc2ccccc2)cc1` [Compound 11, (2S)-1-(N-Benzyloxycarbonyl-L-prolyl)-2-{[(S)-4-methoxy-phenylsulfinyl]acetyl}pyrrolidine], the inhibition at 0.1 µM [1] is reported as 0%, the “inhibition rate, leucine aminopeptidase” value ([2]; 0.1 μM) is reported as 0 and the inhibition at 0.1 µM [3] is reported as 0%. It also gave an inhibition at 0.1 µM [4] of 90%, an IC50 [4] of 1.5 nM and an inhibition at 0.1 µM [5] of 0%. It also gave an inhibition at 0.1 µM [6] of 0%.
For `O=C(COc1ccc(O)cc1)[C@@H]1CCCN1C(=O)[C@@H]1CCCN1C(=O)CCc1ccccc1` [Compound 27, (2S)-2-(4-Hydroxyphenoxyacetyl)-l-[N-(3-phenylpropionyl)-L-prolyl]pyrrolidine], the inhibition at 0.1 µM [1] was 0%, the “inhibition rate, leucine aminopeptidase” value ([2]; 0.1 μM) was 0 and the inhibition at 0.1 µM [3] was 0%. For the same molecule, the inhibition at 0.1 µM [4] was 96%, the IC50 [4] was 2.5 nM and the inhibition at 0.1 µM [5] was 0%. The inhibition at 0.1 µM [6] was 0%.
In the case of `O=C(COc1ccccc1)[C@@H]1CCCN1C(=O)[C@@H]1CCCN1C(=O)CCc1ccccc1` [Compound 19, (2S)-2-(Phenoxyacetyl)-1-[N-(3-phenylpropionyl)-L-prolyl]-pyrrolidine], the inhibition at 1 µM [1] is reported as 0%, the “inhibition rate, leucine aminopeptidase” value ([2]; 1 μM) is reported as 0 and the inhibition at 1 µM [3] is reported as 0%. For the same molecule, the inhibition at 1 µM [4] was 98%, the IC50 [4] was 15 nM and the inhibition at 1 µM [5] was 0%. The inhibition at 1 µM [6] was 0%.
`COc1ccc(OCC(=O)[C@@H]2CCCN2C(=O)[C@@H]2CCCN2C(=O)CCc2ccccc2)cc1` [Compound 20, (2S)-2-[(4-Methoxyphenoxy)acetyl]-1-[N-(3-phenylpropionyl)-L-prolyl]pyrrolidine] was tested, and the inhibition at 1 µM [1] was 0%, the “inhibition rate, leucine aminopeptidase” value ([2]; 1 μM) was 0 and the inhibition at 1 µM [3] was 0%. For the same molecule, the inhibition at 1 µM [4] was 96%, the IC50 [4] was 40 nM and the inhibition at 1 µM [5] was 0%. It also gave an inhibition at 1 µM [6] of 0%.
In the case of `COc1ccc(OCC(=O)[C@@H]2CCCN2C(=O)[C@@H]2CCCN2C(=O)CSc2ccccc2)cc1` [Compound 49, (25)-2-(4-Methoxyphenoxyacetyl)-1-{N-[(phenylthio)acetyl]-L-prolyl}pyrrolidine], the inhibition at 1 µM [1] is reported as 0%, the “inhibition rate, leucine aminopeptidase” value ([2]; 1 μM) is reported as 0 and the inhibition at 1 µM [3] is reported as 0%. The inhibition at 1 µM [4] was 98%, the IC50 [4] was 20 nM and the inhibition at 1 µM [5] was 0%. For the same molecule, the inhibition at 1 µM [6] was 0%.
In the case of `CCCCCCCC(=O)N1CCC[C@H]1C(=O)N1CCC[C@H]1C(=O)COc1ccccc1` [Compound 31, (2S)-1-(N-Octanoyl-L-prolyl)-2-(phenoxyacetyl)pyrrolidine], the inhibition at 0.1 µM [1] is reported as 0%, the “inhibition rate, leucine aminopeptidase” value ([2]; 0.1 μM) is reported as 0 and the inhibition at 0.1 µM [3] is reported as 0%. For the same molecule, the inhibition at 0.1 µM [4] was 97%, the IC50 [4] was 4.5 nM and the inhibition at 0.1 µM [5] was 0%. For the same molecule, the inhibition at 0.1 µM [6] was 0%.
With `O=C(COc1ccc(Cl)cc1)[C@@H]1CCCN1C(=O)[C@@H]1CCCN1C(=O)CCc1ccccc1` [Compound 26, (2S)-2-(4-Chlorophenoxyacetyl)-1-[N-(3-phenylpropionyl)-L-prolyl]pyrrolidine] the inhibition at 1 µM [1] was 0%, the “inhibition rate, leucine aminopeptidase” value ([2]; 1 μM) was 0 and the inhibition at 1 µM [3] was 0%. It also gave an inhibition at 1 µM [4] of 99%, an IC50 [4] of 4.5 nM and an inhibition at 1 µM [5] of 0%. The inhibition at 1 µM [6] was 0%.
In the case of `O=C(COc1ccccc1)[C@@H]1CCCN1C(=O)[C@@H]1CCCN1C(=O)OCc1ccccc1` [Compound 4, (2S)-1-(N-Benzyloxycarbonyl-L-prolyl)-2-(phenoxyacetyl)-pyrrolidine], the inhibition at 0.1 µM [1] is reported as 0%, the “inhibition rate, leucine aminopeptidase” value ([2]; 0.1 μM) is reported as 0 and the inhibition at 0.1 µM [3] is reported as 0%. The inhibition at 0.1 µM [4] was 98%, the IC50 [4] was 0.3 nM and the inhibition at 0.1 µM [5] was 0%. The inhibition at 0.1 µM [6] was 0%.
In the case of `O=C(C[S+]([O-])c1ccccc1)[C@@H]1CCCN1C(=O)[C@@H]1CCCN1C(=O)OCc1ccccc1` (stereo partly drawn) [Compound 2, (2S)-1-(N-Benzyloxycarbonyl-L-prolyl)-2-[(phenylsulfinyl)-acetyl]pyrrolidine], the inhibition at 0.1 µM [1] is reported as 0%, the “inhibition rate, leucine aminopeptidase” value ([2]; 0.1 μM) is reported as 0 and the inhibition at 0.1 µM [3] is reported as 0%. For the same molecule, the inhibition at 0.1 µM [4] was 100%, the IC50 [4] was 1.2 nM and the inhibition at 0.1 µM [5] was 0%. For the same molecule, the inhibition at 0.1 µM [6] was 0%.
With `COc1ccc([S@@+]([O-])CC(=O)[C@@H]2CCCN2C(=O)[C@@H]2CCCN2C(=O)CCc2ccccc2)cc1` [Compound 15] the inhibition at 0.1 µM [1] was 0%, the “inhibition rate, leucine aminopeptidase” value ([2]; 0.1 μM) was 0 and the inhibition at 0.1 µM [3] was 0%. For the same molecule, the inhibition at 0.1 µM [4] was 98%, the IC50 [4] was 2.5 nM and the inhibition at 0.1 µM [5] was 0%. The inhibition at 0.1 µM [6] was 0%.
With `Cc1ccc([S@@+]([O-])CC(=O)[C@@H]2CCCN2C(=O)[C@@H]2CCCN2C(=O)OCc2ccccc2)cc1` [Compound 13, (2S)-1-(N-Benzyloxycarbonyl-L-prolyl)-2-{[(S)-p-tolyl-sulfinyl]acetyl}pyrrolidine] the inhibition at 0.1 µM [1] was 0%, the “inhibition rate, leucine aminopeptidase” value ([2]; 0.1 μM) was 0 and the inhibition at 0.1 µM [3] was 0%. For the same molecule, the inhibition at 0.1 µM [4] was 98%, the IC50 [4] was 0.3 nM and the inhibition at 0.1 µM [5] was 0%. It also gave an inhibition at 0.1 µM [6] of 0%.
In the case of `Cc1ccc([S@+]([O-])CC(=O)[C@@H]2CCCN2C(=O)[C@@H]2CCCN2C(=O)OCc2ccccc2)cc1` [Compound 14], the inhibition at 0.1 µM [1] is reported as 0%, the “inhibition rate, leucine aminopeptidase” value ([2]; 0.1 μM) is reported as 0 and the inhibition at 0.1 µM [3] is reported as 0%. The inhibition at 0.1 µM [4] was 97%, the IC50 [4] was 1.5 nM and the inhibition at 0.1 µM [5] was 0%. For the same molecule, the inhibition at 0.1 µM [6] was 0%.
For `Cc1ccc([S@@+]([O-])CC(=O)[C@@H]2CCCN2C(=O)[C@@H]2CCCN2C(=O)CCc2ccccc2)cc1` [Compound 16, (2S)-1-[N-(3-Phenylpropionyl)-L-prolyl]-2-{[(S)-p-tolylsulfinyl]acetyl}pyrrolidine], the inhibition at 0.1 µM [1] was 0%, the “inhibition rate, leucine aminopeptidase” value ([2]; 0.1 μM) was 0 and the inhibition at 0.1 µM [3] was 0%. It also gave an inhibition at 0.1 µM [4] of 99%, an IC50 [4] of 1.5 nM and an inhibition at 0.1 µM [5] of 0%. It also gave an inhibition at 0.1 µM [6] of 0%.
